Series [1] concerns GI 101A cells. Kind of series: cells. It counts as cell-based, human. Particulars: Homo sapiens, 24 h. The text has this:
(§1) . Cell lines and Culture.
(§2) Drugs and Chemical Reagents. […] . […] All other chemicals were reagent grade.
(§3) Drug Treatment and Survival Curves.
(§4) Pharmacol. 28:370-376 (1991). […] .
(§5) Drug Combinations and Data Analysis. […] . Pharmacol. (in press, 1997). […] Enzyme Regul. […] Enzyme Regul. 22:27-55 (1984).
(§6) . […] Enzyme Regul. 22:27-55 (1984).

In series [2] the test system is MDA-231 cells. The series is described as follows: cells. It counts as cell-based, human. Particulars: Homo sapiens.
Text: as §1, §2, §3, §4, §5, §6

For series [3], the system named is GI 101A cells. The series is described as follows: Flow cytometric cell cycle analysis (propidium iodide). The class given is cell-based, human. Particulars: 100 nM CPT, 24 h. (In flow cytometry, cells or beads pass a laser one at a time.)
Series [4] relates to MDA-231 cells. The description is as above. The class given is cell-based, human. Particulars: 100 nM CPT, 24 h.
Series [5] has as its system normal endothelial cells (BVEC). Described as above. The class given is cell-based, bovine. The note with it: 100 nM CPT, 24 h.
The test system of series [6] is normal bovine venular endothelial cells (BVEC). Kind of series: cells. Particulars: Bos taurus, Endothelial cell, 24 h, read-out: dose inhibiting growth by 50% (CPT alone).
The subject of series [7] is GI 101A cells. The note with it: cited from earlier work.
For series [8], the system named is MDA-231 cells. The note with it: cited from earlier work.
The next series has as its system p34^cdc2 in HeLa cells. Particulars: CPT treatment; cited from earlier work.
A further series has as its system CPT-resistant cells. Particulars: low doses of CPT; cited from earlier work.
A further series has as its system CPT-sensitive cells. The note with it: very high doses of CPT; cited from earlier work.
The next series in a line: in vivo. Particulars: rat, iv, 10 mg/kg.
Another series has as its system HMEC/E6 (p53-). The series is described as follows: Crystal violet staining growth inhibition assay, median effect analysis. The class given is cell-based. The note with it: Homo sapiens, 24 hr treatment. An excerpt:
Cytotoxicity and Bromodeoxyuridine incorporation assays. […] Enzyme Regul.

The test system of series [9] is MDA-231 cells. The series is described as follows: ELISA BrdU incorporation assay (DNA synthesis). The class given is cell-based, human. The note with it: TPT 10 and 50 nM, 24 hr. Background: ELISA stands for enzyme-linked immunosorbent assay.
Series [10] relates to MDA-231 cells. The series is described as follows: FACS cell cycle / BrdU DNA synthesis assay. The class given is cell-based, human. Particulars: TPT 10, 50, 100 nM, 24 h, FIG. 8A.
For series [11], the system named is murine bone marrow cells (CFU-GM). The series is described as follows: In vitro bone marrow cell protection assay (CFU-GM colonies). The note with it: Mus musculus, 0-1000 nM, combination 1:1 molar ratio. It counts as cell-based, C57/BL mice.
The conditions of series [12]: basic side-chain at position 9 forms salts with acids; cited from earlier work.
The test system of the next series is HMEC (p53+). Kind of series: Crystal violet staining growth inhibition assay, median effect analysis. The note with it: Homo sapiens, 24 h, read-out: IC50 HMEC (p53+).
For the next series, the system named is MDA-231 (mutant p53). Described as above. Particulars: Homo sapiens, MDA-MB-231, 24 h, read-out: IC50 MDA-231 (p53-).
For series [13], the system named is DNA damage-dependent G2 -checkpoint. The note with it: cited from earlier work.

Like-named read-outs stand apart in the source and are kept apart here.

The text below walks through data of patent US6214821A, “Methods and composition for the inhibition of cancer cells” (Washington State University Research Foundation, priority 1999, dated 2001).

Usually half-life stands for how long it takes for the measured level to halve.

In the case of `CC[C@@]1(O)C(=O)OCc2c1cc1n(c2=O)Cc2cc3ccccc3nc2-1` [CPT, Camptothecin], the IC50 in the series with GI 101A cells [1] (read-out: 50% inhibition of cell growth (CPT alone)) was 300 nM; with GI 101A cells [1] (read-out: median-effect dose, Dm, for CPT) it was 104 nM; with MDA-231 cells [2] (MDA-MB-231, 24 h, read-out: 50% inhibition of cell growth (CPT alone)), 200 nM; in the series on MDA-231 cells [2] (MDA-MB-231, 24 h, read-out: median-effect dose, Dm, for CPT), 28 nM; in the series on MDA-231 cells [2] (MDA-MB-231, read-out: IC50 of CPT in the absence of UCN-01 (so in the source)), 5 nM; in [6], over 1000 nM. The “cell cycle effect of CPT alone” value (in the series on GI 101A cells [3]; in the series with MDA-231 cells [4]; in series [5]) was “caused an arrest of tumor as well as normal cells in S phase” in each case. For the same compound, the “cell cycle effect of CPT at low and high doses” value in the series on GI 101A cells [7] and with MDA-231 cells [8] was “in the G2 phase while at high doses cells are arrested in the S phase” in each case. The p34cdc2 activity entry in the series on p34^cdc2 in HeLa cells is “loss in activity of p34^cdc2 in HeLa cells”. In addition, the results for the 3H-thymidine incorporation entry with CPT-resistant cells and with CPT-sensitive cells were “stopped incorporating ^3 H-thymidine” and “continued to incorporate ^3 H-thymidine”, respectively. For the same compound, the half-life in the series “in vivo” (in vivo) was found to be 1.42 h.
Regarding `CC[C@@]1(O)C(=O)OCc2c1cc1n(c2=O)Cc2cc3c(CN(C)C)c(O)ccc3nc2-1` [TPT, (S)-10[(dimethylamino)methyl]-4-ethyl-4,9-dihydroxy-IH-pyrano[3',4': 6,7]ind olizino[1,2-b]quinolone-3,14(4H,12H)-dione], the IC50 in the series on HMEC/E6 (p53-) is 34 nM; in series [11], 19 nM; in the series with HMEC (p53+), 6 nM; with MDA-231 (mutant p53) it was 37 nM. For the same compound, the BrdU incorporation entry with MDA-231 cells [9] was “stopped incorporating BrdU”. The “cell cycle effect of TPT by itself” value in the series on MDA-231 cells [10] is listed as “induced an accumulation of MDA-231 cells in S phase”. Moreover, the water solubility entry in series [12] is “water-soluble”. This compound also displayed a half-life in the series “in vivo” (plasma) of 1.53 h.
Take `Cn1c(=O)c2c(ncn2C)n(C)c1=O` [caffeine]: in series [13], the “effect on DNA damage-dependent G2 checkpoint” value is “override the DNA damage-dependent G2 -checkpoint and enhance drug-induced cytotoxicity”.
